Laboratory results published in US11173145B2, “Compounds useful as inhibitors of indoleamine 2,3-dioxygenase and/or tryptophan dioxygenase” (Board of Regents, The University of Texas System, priority 2017, dated 2021).
pIC50: −log10 of the molar value.

Experiments:
[1] = target: T1, IDO1 (Homo sapiens, UniProt P14902); assay: IDO1 cell-based assay (HeLa cells, IFNgamma-induced, N-formylkynurenine/L-tryptophan by RFMS); conditions: 10 ng/mL IFNgamma, 24 hours
T1 construct: endogenous in cells; host or cells: HeLa cells (ATCC), IFNgamma-induced
T1 sequence (P14902 whole entry): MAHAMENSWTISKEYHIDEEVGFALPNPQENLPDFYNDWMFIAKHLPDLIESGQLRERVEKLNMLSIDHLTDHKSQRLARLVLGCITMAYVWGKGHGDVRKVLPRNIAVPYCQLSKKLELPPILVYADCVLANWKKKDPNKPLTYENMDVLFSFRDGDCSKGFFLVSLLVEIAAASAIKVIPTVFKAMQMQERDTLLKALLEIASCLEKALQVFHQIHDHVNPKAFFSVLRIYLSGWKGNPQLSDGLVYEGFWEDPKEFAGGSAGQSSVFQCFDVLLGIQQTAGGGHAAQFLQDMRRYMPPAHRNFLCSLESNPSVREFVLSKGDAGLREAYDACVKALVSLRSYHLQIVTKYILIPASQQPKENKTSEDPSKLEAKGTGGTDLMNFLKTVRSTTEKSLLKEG
Outline: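 HeLa cells stimulated with 10 ng/mL IFNgamma and exposed to compound (0.5% DMSO final) for 24 h at 37 °C. Conditioned media deproteinized, then N-formylkynurenine and L-tryptophan quantified by RapidFire MS with deuterated tryptophan internal standard; IC50 by curve fitting. Viability checked by CellTiter-Glo.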

[2] = target: T2, mouse IDO1 (Mus musculus, UniProt P28776); assay: Mouse IDO1 cell-based assay (PANC02 cells, mouse IFNgamma-induced, N-formylkynurenine/L-tryptophan by RFMS); conditions: 30 ng/mL mouse IFNgamma, 48 hours
T2 construct: The murine PANC02 pancreatic ductal adenocarcinoma cell line was routinely maintained in DMEM media; endogenous in cells; host or cells: PANC02 murine pancreatic ductal adenocarcinoma cells, induced with mouse IFNgamma
T2 sequence (P28776 whole entry): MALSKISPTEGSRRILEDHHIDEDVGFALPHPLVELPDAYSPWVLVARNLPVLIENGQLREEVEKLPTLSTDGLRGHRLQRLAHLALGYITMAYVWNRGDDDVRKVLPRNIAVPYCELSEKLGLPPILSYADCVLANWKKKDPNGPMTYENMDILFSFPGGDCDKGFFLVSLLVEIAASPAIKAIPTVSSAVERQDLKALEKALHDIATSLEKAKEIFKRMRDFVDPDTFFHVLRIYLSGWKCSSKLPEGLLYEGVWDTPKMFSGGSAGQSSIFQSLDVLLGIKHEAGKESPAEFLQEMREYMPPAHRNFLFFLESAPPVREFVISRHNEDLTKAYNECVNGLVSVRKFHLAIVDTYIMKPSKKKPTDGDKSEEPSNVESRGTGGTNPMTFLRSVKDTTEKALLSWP
Protocol: The murine PANC02 pancreatic ductal adenocarcinoma cell line was routinely maintained in DMEM media containing 10% FBS. Cells (3,000/well) were seeded onto a 384 well plate in 50 μl of media and incubated at 37° C., 5% CO2 overnight. Cell media was aspirated, fresh media containing 30 ng/mL mouse IFNgamma (Gibco Life Technologies, cat #PMC4031) was added, and cells were incubated in absence or presence of various concentrations of compounds (final 0.5% DMSO) for 48 hours at 37° C., 5% CO2. Aliquots of the cell conditioned media was removed from the cell plate, and mixed with equal volume of 200 mM ZnSO4 to precipitate media containing protein. Two volumes of acetonitrile were added by mixing, and samples were then centrifuged at 2250G for 20 minutes at 4° C. Aliquots of the supernatant were diluted 1:10 in 0.1% formic acid containing 3 μM of deuterated Tryptophan as an internal standard.
Samples were analyzed via RFMS to quantify N-Formyl Kynurenine (AUC) and L-tryptophan (AUC). A C18 cartridge was used with mobile phases of 0.1% Formic Acid and 80% ACN/0.1% Formic Acid under isocratic conditions. Dose-response curves were analyzed using IC50 regression curve fitting (GeneData Screener). Curves were plotted as percent of control and normalized by high controls without inhibitor (100%), and low controls (0%) containing 1 μM of epacadostat. Cell viability was also assessed using the Cell Titer Glo Kit (Promega) following manufacture recommendation.

| Compound | pIC50 [1] | pIC50 [2] |
| --- | --- | --- |
| O=C(NCc1ccc(Cl)cc1)[C@H]1[C@@H]2CN(c3ncnc4ccc(F)cc34)C[C@@H]21 [Compound 251, (1R,5S,6r)-N-(4-chlorobenzyl)-3-(6-fluoroquinazolin-4-yl)-3-azabicyclo[3.1.0]hexane-6-carboxamide] | < 5.30 | < 5.30 |
| CCC(NC(=O)c1ccc(Cl)cc1)[C@H]1[C@@H]2C[C@@H](NC(=O)c3ncccc3Cl)C[C@@H]21 (stereo partly drawn) [Compound 218, 3-chloro-N-((1R,3s,5S,6r)-6-(1-(4-chlorobenzamido)propyl)bicyclo[3.1.0]hexan-3-yl)picolinamide] | > 6.70 | 5.70 to 6.30 |
| O=C(Nc1ccc(Cl)cc1)[C@H]1[C@@H]2CN(c3ncnc4ccc(F)cc34)C[C@@H]21 [Compound 252, (1R,5S,6r)-N-(4-chlorophenyl)-3-(6-fluoroquinazolin-4-yl)-3-azabicyclo[3.1.0]hexane-6-carboxamide] | < 5.30 | 5.30 to 5.70 |
| CCC(NC(=O)c1ccc(Cl)cc1)[C@H]1[C@@H]2C[C@@H](NC(=O)c3cccnc3C)C[C@@H]21 (stereo partly drawn) [Compound 223, N-((1R,3s,5S,6r)-6-(1-(4-chlorobenzamido)propyl)bicyclo[3.1.0]hexan-3-yl)-2-methylnicotinamide] | > 6.70 | < 5.30 |
| CCC(NC(=O)c1ccc(Cl)cc1)[C@H]1[C@@H]2C[C@H](NC(=O)c3ccc(F)cn3)C[C@@H]21 (stereo partly drawn) [Compound 221, N-((1R,3r,5S,6r)-6-(1-(4-chlorobenzamido)propyl)bicyclo[3.1.0]hexan-3-yl)-5-fluoropicolinamide] | > 6.70 | > 6.30 |
| CCC(NC(=O)c1ccc(Cl)cc1)[C@H]1[C@@H]2C[C@@H](n3ccc4cc(F)ccc43)C[C@@H]21 (stereo partly drawn) [Compound 229, 4-chloro-N-(1-((1R,3s,5S,6r)-3-(5-fluoro-1H-indol-1-yl)bicyclo[3.1.0]hexan-6-yl)propyl)benzamide] | > 6.70 | > 6.30 |
| CCC(NC(=O)c1ccc(Cl)cc1)[C@H]1[C@@H]2C[C@@H](Nc3c([N+](=O)[O-])ccc(F)c3F)C[C@@H]21 (stereo partly drawn) [Compound 244, 4-chloro-N-(1-((1R,3s,5S,6r)-3-((2,3-difluoro-6-nitrophenyl)amino)bicyclo[3.1.0]hexan-6-yl)propyl)benzamide] | > 6.70 | 5.70 to 6.30 |
| CCC(NC(=O)c1ccc(Cl)cc1)[C@H]1[C@@H]2C[C@H](NC(=O)c3nccc(C(F)(F)F)c3Cl)C[C@@H]21 (stereo partly drawn) [Compound 222, 3-chloro-N-((1R,3r,5S,6r)-6-(1-(4-chlorobenzamido)propyl)bicyclo[3.1.0]hexan-3-yl)-4-(trifluoromethyl)picolinamide] | 5.70 to 6.70 | 5.70 to 6.30 |
| CCC(NC(=O)c1ccc(Cl)cc1)[C@H]1[C@@H]2C[C@@H](n3cc(N)nn3)C[C@@H]21 (stereo partly drawn) [Compound 239, N-(1-((1R,3s,5S,6r)-3-(4-amino-1H-1,2,3-triazol-1-yl)bicyclo[3.1.0]hexan-6-yl)propyl)-4-chlorobenzamide] | 5.30 to 5.70 | < 5.30 |
| CCC(NC(=O)c1ccc(Cl)cc1)[C@H]1[C@@H]2C[C@@H](N3C(=O)c4ccccc4C3=O)C[C@@H]21 (stereo partly drawn) [Compound 161, 4-chloro-N-(1-((1R,3s,5S,6r)-3-(1,3-dioxoisoindolin-2-yl)bicyclo[3.1.0]hexan-6-yl)propyl)benzamide] | > 6.70 | 5.70 to 6.30 |
| CCOC(=O)C(N[C@@H]1C[C@@H]2[C@H](C1)[C@H]2C(CC)NC(=O)c1ccc(Cl)cc1)c1ccccc1 (stereo partly drawn) [Compound 190, ethyl 2-(((1R,3s,5S,6r)-6-(1-(4-chlorobenzamido)propyl)bicyclo[3.1.0]hexan-3-yl)amino)-2-phenylacetate] | 5.70 to 6.70 | < 5.30 |

Further lines, results first:

| pIC50 [1] | pIC50 [2] | Compound |
| --- | --- | --- |
| > 6.70 | 5.70 to 6.30 | C[C@@H](NC(=O)c1ccc(C#N)cc1)[C@H]1[C@@H]2C[C@@H](Oc3ncnc4ccc(F)cc34)C[C@@H]21 [Compound 131, 4-cyano-N-((S)-1-((1R,3R,5S,6r)-3-((6-fluoroquinazolin-4-yl)oxy)bicyclo[3.1.0]hexan-6-yl)ethyl)benzamide] |
| < 5.30 | < 5.30 | O=C(NCc1ccc(Cl)cc1)[C@@H]1[C@@H]2CN(c3ncnc4ccc(F)cc34)C[C@@H]21 [Compound 249, (1R,5S,6s)-N-(4-chlorobenzyl)-3-(6-fluoroquinazolin-4-yl)-3-azabicyclo[3.1.0]hexane-6-carboxamide] |
| 5.70 to 6.70 | 5.30 to 5.70 | CCC(NC(=O)c1ccc(Cl)cc1)[C@H]1[C@@H]2C[C@@H](N3CCOC3=O)C[C@@H]21 (stereo partly drawn) [Compound 185, 4-chloro-N-(1-((1R,3s,5S,6r)-3-(2-oxooxazolidin-3-yl)bicyclo[3.1.0]hexan-6-yl)propyl)benzamide] |
| > 6.70 | 5.70 to 6.30 | CCC(NC(=O)c1ccc(Cl)cc1)[C@H]1[C@@H]2C[C@@H](n3ncc4cccnc43)C[C@@H]21 (stereo partly drawn) [Compound 212, N-(1-((1R,3s,5S,6r)-3-(1H-pyrazolo[3,4-b]pyridin-1-yl)bicyclo[3.1.0]hexan-6-yl)propyl)-4-chlorobenzamide] |
| > 6.70 | > 6.30 | CCC(NC(=O)c1ccc(Cl)cc1)[C@H]1[C@@H]2C[C@@H](n3cc4ccc(F)cc4n3)C[C@@H]21 (stereo partly drawn) [Compound 163, 4-chloro-N-(1-((1R,3s,5S,6r)-3-(6-fluoro-2H-indazol-2-yl)bicyclo[3.1.0]hexan-6-yl)propyl)benzamide] |
| > 6.70 | 5.30 to 5.70 | CCC(NC(=O)c1ccc(Cl)cc1)[C@H]1[C@@H]2C[C@@H](NC(=O)c3ccccn3)C[C@@H]21 (stereo partly drawn) [Compound 117, N-((1R,3s,5S,6r)-6-(1-(4-chlorobenzamido)propyl)bicyclo[3.1.0]hexan-3-yl)picolinamide] |
| < 5.30 | < 5.30 | CCC(NC(=O)c1ccc(Cl)cc1)[C@H]1[C@@H]2C[C@@H](n3cc(C4CN(C(C)=O)C4)nn3)C[C@@H]21 (stereo partly drawn) [Compound 257, N-(1-((1R,3s,5S,6r)-3-(4-(1-acetylazetidin-3-yl)-1H-1,2,3-triazol-1-yl)bicyclo[3.1.0]hexan-6-yl)propyl)-4-chlorobenzamide] |
| 5.70 to 6.70 | 5.70 to 6.30 | CCC(NC(=O)c1ccc(Cl)cc1)[C@H]1[C@@H]2C[C@@H](Oc3nc4cc(F)ccc4[nH]3)C[C@@H]21 (stereo partly drawn) [Compound 193, 4-chloro-N-(1-((1R,3s,5S,6r)-3-((6-fluoro-1H-benzo[d]imidazol-2-yl)oxy)bicyclo[3.1.0]hexan-6-yl)propyl)benzamide] |
| > 6.70 | 5.30 to 5.70 | CCC(NC(=O)c1ccc(Cl)cc1)[C@H]1[C@@H]2C[C@@H](NC(=O)c3cncc(Cl)n3)C[C@@H]21 (stereo partly drawn) [Compound 150, 6-chloro-N-((1R,3s,5S,6r)-6-(1-(4-chlorobenzamido)propyl)bicyclo[3.1.0]hexan-3-yl)pyrazine-2-carboxamide] |
| > 6.70 | 5.70 to 6.30 | CCC(NC(=O)c1ccc(Cl)cc1)[C@H]1[C@@H]2C[C@@H](NC(=O)c3ccc(F)cn3)C[C@@H]21 (stereo partly drawn) [Compound 144, N-((1R,3s,5S,6r)-6-(1-(4-chlorobenzamido)propyl)bicyclo[3.1.0]hexan-3-yl)-5-fluoropicolinamide] |
| 5.70 to 6.70 | 5.70 to 6.30 | CCC(NC(=O)c1ccc(Cl)cc1)[C@H]1[C@@H]2C[C@H](n3cc(COCCOC)nn3)C[C@@H]21 (stereo partly drawn) [Compound 215, 4-chloro-N-(1-((1R,3r,5S,6r)-3-(4-((2-methoxyethoxy)methyl)-1H-1,2,3-triazol-1-yl)bicyclo[3.1.0]hexan-6-yl)propyl)benzamide] |
